Test results published in US10252984B2, “Inhibiting G protein coupled receptor 6 kinase polypeptides” (Mayo Foundation for Medical Education and Research, priority 2011, dated 2019).

biological target: GRK6, recombinant full-length GST-tagged human protein (Homo sapiens (Human), UniProt P43250); test: GRK6 LabChip microfluidic mobility shift kinase assay; type: biochemical; details: 8-point concentration-response, top concentration 60 μM, ATP 12 μM (Km)
Experimental: […] All determinations were performed in duplicates. To obtain the IC50 values and the Hill coefficient, the 4-parameter logistic equation was fitted to the data by non-linear regression using XLFit software.

Chain of GRK6, recombinant full-length GST-tagged human protein (P43250 whole entry): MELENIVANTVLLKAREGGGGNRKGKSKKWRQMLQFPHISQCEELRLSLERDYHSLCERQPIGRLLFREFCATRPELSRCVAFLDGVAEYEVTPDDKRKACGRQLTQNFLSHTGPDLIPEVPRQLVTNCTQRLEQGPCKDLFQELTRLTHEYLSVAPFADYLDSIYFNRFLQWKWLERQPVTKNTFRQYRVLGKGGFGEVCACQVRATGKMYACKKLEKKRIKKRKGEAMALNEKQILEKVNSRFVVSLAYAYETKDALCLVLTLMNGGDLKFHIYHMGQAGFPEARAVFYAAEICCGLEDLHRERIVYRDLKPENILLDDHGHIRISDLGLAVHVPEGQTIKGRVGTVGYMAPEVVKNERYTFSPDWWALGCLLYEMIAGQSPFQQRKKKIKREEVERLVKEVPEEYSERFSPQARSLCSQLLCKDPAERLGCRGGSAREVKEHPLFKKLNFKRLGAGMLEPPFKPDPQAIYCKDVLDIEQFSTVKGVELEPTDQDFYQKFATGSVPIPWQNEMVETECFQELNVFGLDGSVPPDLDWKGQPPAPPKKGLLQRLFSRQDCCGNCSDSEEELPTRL

SMILES	IC50 [µM]
O=c1cc(-c2ccc(O)cc2)oc2cc(O)c(O)c(O)c12	6.61
COc1cc(/C=C2/SC(=S)N(c3cccnc3)C2=O)ccc1O	40.6
Cc1cc(NC(c2ccccn2)c2ccc3cccnc3c2O)no1 (stereo not drawn)	6.45
Cc1cccc(NC2=NC(=O)/C(=C/c3ccc(O)c(O)c3)S2)c1C	7.11
Oc1c(C(Nc2ccccn2)c2cccnc2)ccc2cccnc12 (stereo not drawn)	6.75
CCn1c(COc2ccccc2)nnc1SCCC(=O)O	> 60
O=S(=O)(Nc1ccc(-n2cnnn2)cc1)c1ccc(S(=O)(=O)N2CCCCCC2)cc1	> 60
N#CC1=C(N)Oc2cc(N)ccc2C1c1cccs1 (stereo not drawn)	11.8
NC(=O)c1cc(N)c2c(c1N)C(=O)c1ccccc1C2=O	12.7
O=C1Nc2ccc(S(=O)(=O)N3CCCCC3)c3cccc1c23	> 60
Cc1ccc(C2C(C#N)=C(N)Oc3cc(N)ccc32)cc1 (stereo not drawn)	26
CC(=O)Nc1ccc(Nc2nnc(-c3ccc(O)cc3)c3ccccc23)cc1	> 60
Cc1cc2c(C(C)C)c(O)c(O)c(/C=N/CCCN3CCOCC3)c2c(O)c1-c1c(C)cc2c(C(C)C)c(O)c(O)c(/C=N/CCCN3CCOCC3)c2c1O	10.1
Nc1ccc2c3c1C(=O)OC3(O)c1ccccc1C2=O (stereo not drawn)	47
CCN(CC)c1ccc(C(c2c(C)n[nH]c2O)c2c(C)n[nH]c2O)cc1	9.93
Cc1ccc([N+](=O)[O-])c(NC2OC(CO)C(O)C2O)c1 (stereo not drawn)	12
C=CCn1c(N)c(C(=O)OC)c2nc3ccccc3nc21	0.973
CCCCCn1c(N)c(C(=O)OC)c2nc3ccccc3nc21	1.03
CCCCCCn1c(N)c(C(=O)OC)c2nc3ccccc3nc21	1.43
O=C(O)CSc1nnc(-c2ccc(OC(F)(F)F)cc2)[nH]1	5.92
O=C(O)CSc1nnc(-c2cccs2)[nH]1	4.6
Cc1ccc2nc(NC=O)sc2c1	> 60

Continued, values first:

IC50 [µM]	SMILES
7.05	CCOC(=O)c1ccc(CC(=O)c2ccc(O)c(O)c2O)o1
28.4	Oc1ccc(-c2nc3ccc4ccccc4c3c3c2CCC3)cc1O
8.44	CCN(CC)c1ccc(C2Nc3cccc4cccc(c34)N2)c(O)c1
4.48	CCOc1ccc(NC(c2ccccn2)c2ccc3cccnc3c2O)cc1 (stereo not drawn)
> 60	Cc1nc2ccccn2c1-c1csc(Nc2ccc(N)cc2)n1
6.48	N#CC1=C(N)Oc2cc(N)ccc2C1c1cc2cc3c(cc2nc1Cl)OCO3 (stereo not drawn)
> 60	Cc1ccc(-c2ccccc2NS(=O)(=O)c2ccc(S(=O)(=O)N3CCCCCC3)cc2)o1
> 60	CCNC(=S)N(CCO)Cc1cc2cc3c(cc2[nH]c1=O)OCO3
4.41	CCOc1cc(-c2ccc(O)c(O)c2)cc(=O)c2c(C)oc(C)c12
> 60	COCCNC(=O)CN(C(=O)c1snc(C(N)=O)c1N)c1ccccc1
2.55	CCOc1cccc(=O)c2c(C)[nH]c(C)c12
16.9	Cc1cc2c(c(O)c1-c1c(C)cc3c(c1O)/C(=C/NCCCN1CCOCC1)C(=O)C(O)=C3C(C)C)/C(=C/NCCCN1CCOCC1)C(=O)C(O)=C2C(C)C
18.8	CCN(CC)CCn1c2ccccc2c2cnc(N)c(C#N)c21
2.83	CCOC(=O)c1c(N)n(C2CC2)c2nc3ccccc3nc12
> 60	CCCCC(CC)CNC(=O)c1ccc(N/N=C2\C(=O)Nc3ccc(Br)cc32)cc1 (stereo not drawn)
1.37	CN(C)c1ccc(O)c2c1CC1CC3[C@H](N(C)C)C(O)=C(C(N)=O)C(=O)[C@@]3(O)C(O)=C1C2=O (stereo partly drawn)
8.7	O=c1cc(-c2ccccc2)oc2cc(O)c(O)c(O)c12
3.4	CCOc1cccc(=O)c2c(C)n(-c3ccc(C)cc3)c(C)c12
7.16	COc1ccc(-c2cc(=O)oc3c(O)c(O)ccc23)cc1
1.56	CCCCn1c(N)c(C#N)c2nc3ccccc3nc21
6.66	O=C(O)c1ccc([C@@H]2Nc3ccc(I)cc3[C@@H]3C=CC[C@@H]32)cc1
6.62	O=[N+]([O-])c1cc(C2=NN=C(NCc3ccco3)SC2)ccc1Cl
10.4	c1ccc(-c2ccc(C3=NN=C(NCc4ccco4)SC3)cc2)cc1
> 60	Oc1ccc(-c2nnc(NCCc3ccccc3)s2)cc1
1.44	Cc1cccc(-c2nnc(SCC(=O)O)[nH]2)c1
17.8	Nc1ccc(CCc2nc3cc(N)ccc3o2)cc1
12.5	C1=Nc2cccc3cccc(c23)N1
> 60	COc1ccc(-c2cnc(-c3cccnc3)o2)cc1

same assay, conditions: GRK6 polypeptide inhibition assay, class symbols

IC50 [µM]	SMILES
> 20	Cc1ccc(-c2ccccc2NS(=O)(=O)c2ccc(S(=O)(=O)N3CCCCCC3)cc2)o1
10.1 to 20	Cc1ccc([N+](=O)[O-])c(NC2OC(CO)C(O)C2O)c1 (stereo not drawn)

same assay, conditions: at ATP Km, 12-pt dose response, duplicates; values only in FIG. 1

IC50 values of model inhibitors	SMILES
in good agreement with published data	O=S(=O)(NCCNC/C=C/c1ccc(Br)cc1)c1cccc2cnccc12 [H89, reference compound]
in good agreement with published data	Cn1cc(C2=C(c3cn(CCCSC(=N)N)c4ccccc34)C(=O)NC2=O)c2ccccc21 [Ro-31-8220, reference compound]
